Data: patent US9062070B2, “Inhibitors of the renal outer medullary potassium channel” (Merck Sharp & Dohme Corp., priority 2011, dated 2015)

Tests used:
[1] = target: Kir1.1 (ROMK1) (Homo sapiens (Human), UniProt P48048); experiment: Electrophysiology Assay (whole cell voltage clamp, IonWorks Quattro); type: cell-based; conditions: Chinese hamster ovary cells stably expressing Kir1.1; block during voltage step to 0 mV
Description: Block of Kir1.1 (ROMK1) currents was examined by whole cell voltage clamp (Hamill et. al. […] Prior to an experiment, Kir1.1 expression was induced by overnight incubation with 1 mM sodium butyrate. […] After centrifugation, the cell pellet was resuspended in approximately 4.0 mL of bath solution and placed in the IonWorks instrument. The intracellular solution consisted of (in mM): 80 K gluconate, 40 KCl, 20 KF, 3.2 MgCl2, 3 EGTA, 5 Hepes, pH 7.4. […] Amphotericin B (Sigma A-4888) was prepared as a 40 mg/mL solution in DMSO. Voltage protocols and current recordings were performed using the IonWorks HT software/hardware system. […] No correction for liquid junction potentials was used. The test pulse, consisting of a 100 ms step to 0 mV from a holding potential of −70 mV, followed by a 100 ms voltage ramp from −70 mV to +70 mV, was applied before and after a 6 min compound incubation period. Test compounds were prepared by diluting DMSO stock solutions into the bath solution at 3× the final concentration and placed in the instrument in 96-well polypropylene plates. Current amplitudes were measured using the IonWorks software. To assess compound potency, the fractional block during the voltage step to 0 mV was calculated in Microsoft Excel (Microsoft, Redmond, Calif.), and dose-response curves were fitted with Igor Pro 4.0 (WaveMetrics, Lake Oswego, Oreg.).

[2] = target: hROMK (hKir1.1) (Homo sapiens (Human), UniProt P48048); experiment: Thallium Flux Assay (ROMK channel functional thallium flux, FLIPR-Tetra); type: cell-based; conditions: HEK293 cells stably expressing hROMK (hKir1.1)
Description: HEK293 cells stably expressing hROMK (hKir1.1) were grown at 37° C. in a 10% CO2 humidified incubator in complete growth media: Dulbecco's Modified Eagle Medium supplemented with non-essential amino acids, Penicillin/Streptomycin/Glutamine, G418 and FBS. At >80% confluency, aspirate the media from the flask and rinse with 10 mL Calcium/Magnesium-free PBS. Add 5 mL of 1× trypsin (prepared in Ca/Mg Free PBS) to T-225 flask and return flask to 37° C./CO2 incubator for 2-3 minutes. To dislodge the cell, gently bang the side of the flask with your hand. Triturate the cells completely and then transfer the cells to 25 mL complete media. Centrifuge at 1,500 rpm for 6 min followed by resuspension in complete growth media and determine cell concentration. For typical re-seeding, 4E6 cells/T-225 flask will attain>80% confluency in 4 days. Under ideal growth conditions and appropriate tissue culture practices, this cell line is stable for 40-45 passages.
• FluxOR™ Reagent (Component A) • FluxOR™ Assay Buffer (Component B)—10× Concentrate • PowerLoad™ Concentrate (Component C)—100× Concentrate • Probenecid (Component D)—Lyophilized sample is kept at −20° C. Water soluble, 100× after solubilization in 1 mL water. Store at 4° C. • FluxOR™ Chloride-free Buffer (Component E)—5× Concentrate • Potassium sulfate (K2SO4) Concentrate (Component F)—125 mM in water. Store at 4° C. • Thallium sulfate (Tl2SO4) Concentrate (Component G)—50 mM in water. Store at 4° C. • DMSO (dimethyl sulfoxide, Component H)—1 mL (100%) Reagent Preparation: FluxOR Working Solutions • 1000× FluxOR™ Reagent: Reconstitute a vial of component A in 100 μl DMSO; Mix well; Store 10 μl aliquots at −20° C. • 1× FluxOR™ Assay Buffer: Dilute Component B 10-fold with water; Adjust pH to 7.4 with Hepes/NaOH; Filter and store at 4° C. • Probenecid/Assay Buffer: 100 mL of 1× FluxOR™ Assay Buffer; 1 mL of reconstituted component D; Store at 4° C. • Loading Buffer (per microplate): 10 μl 1000× FluxOR™ Reagent; 100 μl component C; 10 mL Probenecid/Assay Buffer • Compound Buffer (per microplate): 20 mL Probenecid/Assay Buffer; 0.3 mM ouabain (10 mM ouabain in water can be stored in amber bottle/aluminum foil at room temperature); Test compound • 1× FluxOR™ Chloride-Free Buffer: Prepare 1× working solution in water. Can be stored at room temperature • Stimulant Buffer (prepared at 5× final concentration in 1× FluxOR™ Chloride-Free Buffer): 7.5 mM Thallium sulfate and 0.75 mM Potassium sulfate (to give a final assay concentration of 3 mM Thallium/0.3 mM Potassium). Store at 4° C. when not in use. If kept sterile, this solution is good for months. Assay Protocol—
The ROMK channel functional thallium flux assay is performed in 384 wells, using the FLIPR-Tetra instrument. HEK-hKir1.1 cells are seeded in Poly-D-Lysine microplates and kept in a 37° C.-10% CO2 incubator overnight. On the day of the experiment, the growth media is replaced with the FluxOR™ reagent loading buffer and incubated, protected from light, at ambient temperature (23-25° C.) for 90 min. The loading buffer is replaced with assay buffer±test compound followed by 30 min incubation at ambient temperature, where the Thallium/Potassium stimulant is added to the microplate.
• 1. Seed HEK-hKir1.1 cells (50 μl at 20,000 cells/well) in 384-well PDL coated Microplates • 2. Allow cells to adhere overnight in humidified 37° C./10% CO2 incubator • 3. Completely remove cell growth media from microplate and replace with 25 μl loading buffer • 4. Incubate Microplate at room temperature, protected form light, for 90 min • 5. Remove loading buffer and replace with 25 μl 1× Assay Buffer±test compound. • 6. Incubate microplate at room temperature, protected form light, for 30 min • 7. At FLIPR-Tetra 384: Add stimulant (Thallium/Potassium) solution to microplate and monitor fluorescence. Excitation=400 nm, Emission=460 & 580 nm. Collect data for ˜10 min. Data Calculation—

Sequence of hROMK (hKir1.1) (P48048 whole entry): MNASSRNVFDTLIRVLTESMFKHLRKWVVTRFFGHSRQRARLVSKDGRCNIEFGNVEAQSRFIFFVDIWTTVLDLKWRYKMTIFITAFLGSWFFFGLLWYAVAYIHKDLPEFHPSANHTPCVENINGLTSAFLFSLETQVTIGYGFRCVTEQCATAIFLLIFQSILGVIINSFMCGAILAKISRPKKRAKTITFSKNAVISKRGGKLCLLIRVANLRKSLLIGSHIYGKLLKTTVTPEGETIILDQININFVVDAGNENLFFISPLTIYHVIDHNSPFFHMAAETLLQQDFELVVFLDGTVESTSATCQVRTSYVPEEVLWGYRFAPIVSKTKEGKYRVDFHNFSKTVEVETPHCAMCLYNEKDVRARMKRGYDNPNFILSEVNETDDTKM
Sequence of Kir1.1 (ROMK1) (P48048 whole entry): as above

| Structure (SMILES) | IC50 [1] | IC50 [2] |
| --- | --- | --- |
| Cc1c([C@H]2CN3CCN(C(=O)C4CCc5cc(-n6cnnn6)ncc54)C[C@H]3CN2)ccc(F)c1C#N (stereo partly shown) [Example 97] | 90 nM | 160 nM |
| Cc1c([C@@H]2CN3CCN(C(=O)C4CCc5cc(-n6cnnn6)cnc54)C[C@@H]3CO2)ccc(F)c1C#N (stereo partly shown) [Example 91] | 140 nM | 550 nM |
| N#Cc1c(F)ccc([C@H]2CN3CCN(C(=O)C4CCc5nc(-n6cnnn6)ccc54)C[C@H]3CO2)c1F (stereo partly shown) [Example 19] | 90 nM | 420 nM |
| Cc1c([C@@H]2CN3CCN(C(=O)C4CCc5cc(-n6cnnn6)ncc54)C[C@H]3CN2)ccc(F)c1C#N (single isomer, unassigned) [Example 96A] | 100 nM | 200 nM |
| N#Cc1c(F)ccc([C@H]2CN3CCN(C(=O)C4CCc5nc(-n6cnnn6)ccc54)C[C@@H]3CO2)c1F (stereo partly shown) [Example 21] | 80 nM | 240 nM |
| N#Cc1c(F)ccc([C@H]2CN3CCN(C(=O)C4CCc5cc(-n6cnnn6)ncc54)C[C@@H]3CO2)c1F (stereo partly shown) [Example 23] | 150 nM | 540 nM |
| N#Cc1c(F)ccc([C@@H]2CN3CCN(C(=O)C4CCc5cc(-n6cnnn6)ncc54)C[C@H]3CO2)c1F (stereo partly shown) [Example 22] | 40 nM | 160 nM |
| Cc1c([C@H]2CN3CCN(C(=O)C4CCc5nc(-n6cnnn6)ncc54)C[C@H]3CO2)ccc2c1COC2=O (stereo partly shown) [Example 3] | 530 nM | 250 nM |
| COc1c([C@@H]2CN3CCN(C(=O)C4CCc5cc(-n6cnnn6)ncc54)C[C@H]3CO2)ccc(F)c1C#N (stereo partly shown) [Example 52] | 220 nM | 420 nM |
| Cc1c([C@@H]2CN3CCN(C(=O)C4CCc5cc(-n6cnnn6)ncc54)C[C@H]3CO2)ccc(F)c1C#N (stereo partly shown) [Example 44] | 170 nM | 170 nM |
| Cc1c([C@@H]2CN3CCN(C(=O)C4CCc5cc(-n6cnnn6)cnc54)C[C@H]3CO2)ccc(F)c1C#N (stereo partly shown) [Example 37] | 240 nM | 810 nM |
| Cc1c([C@H]2CN3CCN(C(=O)C4CCc5nc(-n6cnnn6)ccc54)C[C@H]3CO2)ccc(F)c1C#N (stereo partly shown) [Example 5] | 100 nM | 170 nM |
| Cc1c([C@H]2CN3CCN(C(=O)[C@@H]4CCc5nc(-n6cnnn6)ncc54)C[C@@H]3CO2)ccc(F)c1C#N [Example 2B, 6-fluoro-2-methyl-3-[(3S,9aR)-8-{[(5R)-2-(1H-tetrazol-1-yl)-6,7-dihydro-5H-cyclopenta[d]pyrimidin-5-yl]carbonyl}octahydropyrazino[2,1-c][1,4]oxazin-3-yl]benzonitrile] | 100 nM | 350 nM |
| N#Cc1c(F)ccc([C@H]2CN3CCN(C(=O)C4CCc5nc(-n6cnnn6)ncc54)C[C@@H]3CO2)c1Cl (stereo partly shown) [Example 83] | 80 nM | 360 nM |
| Cc1c([C@@H]2CN3CCN(C(=O)C4CCc5nc(-n6cnnn6)ccc54)C[C@H]3CO2)ccc(F)c1C#N (stereo partly shown) [Example 6] | 100 nM | 240 nM |
| N#Cc1c(F)ccc([C@H]2CN3CCN(C(=O)C4CCc5nc(-n6cnnn6)ccc54)C[C@H]3CO2)c1Cl (stereo partly shown) [Example 29] | 140 nM | 450 nM |

| Structure (SMILES) | IC50 [1] | IC50 [2] |
| --- | --- | --- |
| N#Cc1c(F)ccc([C@@H]2CN3CCN(C(=O)C4CCc5nc(-n6cnnn6)ccc54)C[C@@H]3CO2)c1F (stereo partly shown) [Example 20] | 80 nM | 230 nM |
| COc1ccc([C@H]2CN3CCN(C(=O)C4CCc5cc(-n6cnnn6)ncc54)C[C@@H]3CO2)c(C)c1C#N (stereo partly shown) [Example 74] | 280 nM | 500 nM |
| Cc1c([C@@H]2CN3CCN(C(=O)C4CCc5cc(-n6cnnn6)cnc54)C[C@H]3CO2)ccc(F)c1C#N (stereo partly shown) [Example 38] | 280 nM | 900 nM |
| O=C1OCCc2cc([C@@H]3CN4CCN(C(=O)C5CCc6cc(-n7cnnn7)ncc65)C[C@H]4CO3)ccc21 (stereo partly shown) [Example 45] | 220 nM | 600 nM |
| N#Cc1c(F)ccc([C@H]2CN3CCN(C(=O)C4CCc5cc(-n6cnnn6)ncc54)C[C@H]3CO2)c1Cl (stereo partly shown) [Example 32] | 70 nM | 130 nM |
| N#Cc1cc([C@@H]2CN3CCN(C(=O)C4CCc5cc(-n6cnnn6)ncc54)C[C@H]3CO2)c(F)cc1F (stereo partly shown) [Example 68] | 200 nM | 200 nM |
| N#Cc1c(F)ccc([C@H]2CN3CCN(C(=O)C4CCc5nc(-n6cnnn6)ccc54)C[C@@H]3CO2)c1Cl (stereo partly shown) [Example 30] | 190 nM | 290 nM |
| Cc1c([C@H]2CN3CCN(C(=O)C4CCc5cc(-n6cnnn6)ncc54)C[C@@H]3CN2)ccc(F)c1C#N (stereo partly shown) [Example 104] | 120 nM | 360 nM |
| N#Cc1c(F)ccc([C@@H]2CN3CCN(C(=O)C4CCc5cc(-n6cnnn6)ncc54)C[C@@H]3CO2)c1F (stereo partly shown) [Example 24] | 200 nM | 110 nM |
| Cc1c([C@H]2CN3CCN(C(=O)C4CCc5cc(-n6cnnn6)ncc54)C[C@@H]3CO2)ccc(F)c1C#N (stereo partly shown) [Example 41] | 110 nM | 720 nM |
| O=C1OCCc2cc([C@@H]3CN4CCN(C(=O)C5CCCc6nc(-n7cnnn7)ccc65)C[C@H]4CO3)ccc21 (stereo partly shown) [Example 14] | 210 nM | 470 nM |
| Cc1c([C@@H]2CN3CCN(C(=O)C4CCc5cc(-n6cnnn6)ncc54)C[C@@H]3CO2)ccc(F)c1C#N (stereo partly shown) [Example 43] | 130 nM | 850 nM |
| N#Cc1c(F)ccc([C@H]2CN3CCN(C(=O)C4CCc5cc(-n6cnnn6)ncc54)C[C@H]3CO2)c1F (stereo partly shown) [Example 25] | 60 nM | 100 nM |
| N#Cc1cc([C@@H]2CN3CCN(C(=O)C4CCc5nc(-n6cnnn6)ncc54)C[C@H]3CO2)ccc1F (stereo partly shown) [Example 79] | 190 nM | 210 nM |
| COc1c([C@@H]2CN3CCN(C(=O)C4CCc5cc(-n6cnnn6)ncc54)C[C@H]3CO2)ccc(C#N)c1F (stereo partly shown) [Example 70] | 100 nM | 500 nM |
| Cc1c([C@H]2CN3CCN(C(=O)C4CCCc5nc(-n6cnnn6)ccc54)C[C@@H]3CO2)ccc(F)c1C#N (stereo partly shown) [Example 13] | 260 nM | 320 nM |
